The structures appear in SMILES notation.

The target of assay [1] is 5-hydroxytryptamine receptor 1B (Rattus norvegicus, UniProt P28564). The assay is described as follows: Binding affinity was measured on 5-hydroxytryptamine 1B receptor in rat striatum labeled with [3H]5-HT. In kind it is tissue-based.
In assay [2] the target is T1, 5-hydroxytryptamine receptor 1D (Homo sapiens, UniProt P28221). Nature of the assay: Compound was evaluated for its agonistic activity on 5-hydroxytryptamine 1D receptor. Format: functional.
The target of assay [3] is 5-hydroxytryptamine receptor 2A (Homo sapiens, UniProt P28223). Nature of the assay: biochemical. Format: cell-based, GF6.
Assay [4] has as its target T1, 5-hydroxytryptamine receptor 1D. The assay is described as follows: Binding affinity was measured on 5-hydroxytryptamine 1D receptor alpha in COS cells transfected with human 5-HT1D alpha gene labeled with [3H]5-HT. In kind it is cell-based.
The target of assay [5] is T2, Serotonin 3 (5-HT3) receptor (Rattus norvegicus, UniProt P35563+Q9JJ16).
T2 sequence (P35563 whole entry): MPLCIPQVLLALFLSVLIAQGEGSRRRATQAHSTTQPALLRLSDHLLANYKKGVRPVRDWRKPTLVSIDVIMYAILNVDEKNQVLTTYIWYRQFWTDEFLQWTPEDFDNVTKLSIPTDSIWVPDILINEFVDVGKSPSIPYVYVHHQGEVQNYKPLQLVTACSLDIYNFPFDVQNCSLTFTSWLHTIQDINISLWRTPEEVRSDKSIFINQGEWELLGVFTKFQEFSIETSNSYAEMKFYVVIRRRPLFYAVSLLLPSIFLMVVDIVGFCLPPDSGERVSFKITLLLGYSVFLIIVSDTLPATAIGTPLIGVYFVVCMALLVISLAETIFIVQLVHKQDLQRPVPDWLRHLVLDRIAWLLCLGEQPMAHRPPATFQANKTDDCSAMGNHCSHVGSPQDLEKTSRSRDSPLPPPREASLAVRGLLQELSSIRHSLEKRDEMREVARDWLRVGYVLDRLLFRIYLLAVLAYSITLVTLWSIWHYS
T2 sequence (Q9JJ16 whole entry): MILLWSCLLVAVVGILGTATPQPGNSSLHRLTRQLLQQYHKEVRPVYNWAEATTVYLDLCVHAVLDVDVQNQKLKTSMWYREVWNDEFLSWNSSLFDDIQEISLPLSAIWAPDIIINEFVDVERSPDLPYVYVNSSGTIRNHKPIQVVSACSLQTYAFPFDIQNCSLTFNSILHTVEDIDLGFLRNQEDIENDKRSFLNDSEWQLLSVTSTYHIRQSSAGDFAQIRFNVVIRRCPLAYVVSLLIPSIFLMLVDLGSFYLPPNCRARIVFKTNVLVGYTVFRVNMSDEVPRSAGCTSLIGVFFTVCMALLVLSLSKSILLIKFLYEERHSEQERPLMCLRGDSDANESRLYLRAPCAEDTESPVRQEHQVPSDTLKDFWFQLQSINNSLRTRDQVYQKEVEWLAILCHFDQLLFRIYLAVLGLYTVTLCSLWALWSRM
Nature of the assay: Binding affinity was measured on 5-hydroxytryptamine 3 receptor in NG-108 cells labeled with [3H]GR-65630. In kind it is cell-based.

Assay [6] addresses T3, 5-hydroxytryptamine receptor 2C (Rattus norvegicus, UniProt P08909).
T3 sequence (P08909 whole entry): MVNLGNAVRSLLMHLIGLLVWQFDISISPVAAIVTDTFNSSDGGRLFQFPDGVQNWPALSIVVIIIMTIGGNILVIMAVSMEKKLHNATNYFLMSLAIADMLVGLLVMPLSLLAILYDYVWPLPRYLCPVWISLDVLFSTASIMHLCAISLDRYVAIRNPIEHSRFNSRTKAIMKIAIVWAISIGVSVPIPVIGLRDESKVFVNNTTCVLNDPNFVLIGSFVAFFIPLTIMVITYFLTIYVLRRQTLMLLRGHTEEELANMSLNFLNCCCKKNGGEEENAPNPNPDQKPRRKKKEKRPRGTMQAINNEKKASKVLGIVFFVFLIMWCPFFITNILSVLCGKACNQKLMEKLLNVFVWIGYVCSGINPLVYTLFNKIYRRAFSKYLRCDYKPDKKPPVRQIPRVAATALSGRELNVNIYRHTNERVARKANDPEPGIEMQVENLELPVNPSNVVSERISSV
The assay is described as follows: Binding affinity was measured on 5-hydroxytryptamine 2C receptor in J1 cells transfected with rat 5-HT2C gene labeled with [3H]mesulergine. Format: cell-based.

T1 sequence (P28221 whole entry): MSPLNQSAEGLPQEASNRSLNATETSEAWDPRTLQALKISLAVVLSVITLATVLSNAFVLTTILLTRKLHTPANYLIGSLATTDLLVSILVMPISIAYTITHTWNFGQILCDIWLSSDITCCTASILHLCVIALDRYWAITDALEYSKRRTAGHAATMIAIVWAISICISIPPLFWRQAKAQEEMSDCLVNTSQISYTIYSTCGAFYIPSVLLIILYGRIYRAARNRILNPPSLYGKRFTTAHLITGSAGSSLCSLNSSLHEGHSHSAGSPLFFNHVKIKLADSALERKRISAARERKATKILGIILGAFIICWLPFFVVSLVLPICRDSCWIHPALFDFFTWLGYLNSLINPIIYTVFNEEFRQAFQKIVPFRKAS
Chain of 5-hydroxytryptamine receptor 2A (P28223 whole entry): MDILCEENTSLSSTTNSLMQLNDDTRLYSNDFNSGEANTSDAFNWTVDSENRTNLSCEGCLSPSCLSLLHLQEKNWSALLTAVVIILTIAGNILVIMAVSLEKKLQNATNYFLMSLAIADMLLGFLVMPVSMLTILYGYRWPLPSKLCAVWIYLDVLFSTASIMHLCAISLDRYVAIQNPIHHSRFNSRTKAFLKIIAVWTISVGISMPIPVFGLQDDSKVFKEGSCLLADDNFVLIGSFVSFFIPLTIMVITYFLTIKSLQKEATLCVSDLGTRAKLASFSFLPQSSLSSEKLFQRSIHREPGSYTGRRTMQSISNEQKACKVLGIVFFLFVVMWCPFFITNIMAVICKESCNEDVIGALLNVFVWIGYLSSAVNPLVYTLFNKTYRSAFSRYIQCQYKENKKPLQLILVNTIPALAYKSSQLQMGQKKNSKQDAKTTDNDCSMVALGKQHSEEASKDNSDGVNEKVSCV
Chain of 5-hydroxytryptamine receptor 1B (P28564 whole entry): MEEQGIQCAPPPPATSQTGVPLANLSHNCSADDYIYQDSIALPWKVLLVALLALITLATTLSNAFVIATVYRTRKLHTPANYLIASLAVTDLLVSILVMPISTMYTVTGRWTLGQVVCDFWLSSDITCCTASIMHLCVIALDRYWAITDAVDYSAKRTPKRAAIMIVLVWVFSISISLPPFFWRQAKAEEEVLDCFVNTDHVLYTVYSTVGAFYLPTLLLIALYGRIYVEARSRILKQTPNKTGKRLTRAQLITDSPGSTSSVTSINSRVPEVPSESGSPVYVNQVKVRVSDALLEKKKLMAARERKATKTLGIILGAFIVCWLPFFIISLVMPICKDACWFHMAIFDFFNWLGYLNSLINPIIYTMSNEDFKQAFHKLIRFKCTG

Take `CCCCCCCCCOc1ccc2[nH]cc(CCN)c2c1`: the Ki in assay [1] is 13 nM; in assay [3], 260 nM; in assay [4] it was 16 nM; in assay [5] it was more than 1000 nM; in assay [6], 270 nM. In assay [2], this compound yielded an ED50 of 68 nM.

Regarding `CNS(=O)(=O)Cc1ccc2[nH]cc(CCN(C)C)c2c1`, the ED50 in assay [2] was 317 nM. Also, the Ki in assay [5] and in assay [6] was more than 1000 nM in each case.

Compound `NCCc1c[nH]c2ccc(O)cc12` showed an ED50 in assay [2] of 1.2 nM.

The record behind these values is ChEMBL document CHEMBL1127443 (J Med Chem, 1994).
